The subject of the series is DMPK. The series is described as follows: DMPK knockdown by transfected antisense oligonucleotides in DM1 C15 myotubes at 0.5 nM and 50 nM. It is filed as cell-based. The following applies: 72 hours; for Normalized DMPK Remaining: relative to vehicle control = 1.00. The method, boiled down:
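Seven-day-differentiated DM1 C15 myotubes transfected (Lipofectamine MessengerMax) with each oligonucleotide at 0.5 nM or 50 nM final, biological triplicates. After 72 h, DMPK mRNA quantified by qPCR, expressed relative to vehicle-only transfection set to 1.00.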

Where [1] appears, read: 0.5 nM oligonucleotide, qPCR, relative to vehicle control.
Setting [2] is: 50 nM oligonucleotide, qPCR, relative to vehicle control.

As to “279 (CAUCUCGGCCGGAAUCCGCU; chemistry not given here) [compound 279]”, the “Percent DMPK Reduction” value by setting is: under setting [1], 20.21%; under setting [2], 59.40%. Moreover, the “Normalized DMPK Remaining” value by setting is: (0.5 nM oligonucleotide, qPCR) 0.80; (50 nM oligonucleotide, qPCR) 0.41.
Regarding “397 (GGACAGACAAUAAAUACCGA; chemistry not given here) [compound 397]”, where the note is “0.5 nM oligonucleotide”, the “Percent DMPK Reduction” value stood at 22.57% and the “Normalized DMPK Remaining” value stood at 0.77. Moreover, for the setting “50 nM oligonucleotide”, the “Percent DMPK Reduction” value came out at 52.51% and the “Normalized DMPK Remaining” value is 0.47.
For “277 (GACCAGGUACAGGUAGUUCU; chemistry not given here) [compound 277]”, the “Percent DMPK Reduction” value runs as follows: under setting [1], 42.85%; under setting [2], 70.95%. The “Normalized DMPK Remaining” value is, setting by setting: (0.5 nM oligonucleotide, qPCR) 0.57; (50 nM oligonucleotide, qPCR) 0.29.
Regarding “384 (UGGACGAUCUUGCCAUAGGU; chemistry not given here) [compound 384]”, the “Percent DMPK Reduction” value was determined as 19.20% (0.5 nM oligonucleotide) and 42.52% (50 nM oligonucleotide). The “Normalized DMPK Remaining” value runs as follows: (0.5 nM oligonucleotide) 0.81; (50 nM oligonucleotide) 0.57.
As for “338 (CGGACGGCCCGGCUUGCUGC; chemistry not given here) [compound 338]”, the “Percent DMPK Reduction” value under setting [1] is 5.42% and the “Percent DMPK Reduction” value under setting [2] is given as 30.41%. Moreover, the “Normalized DMPK Remaining” value (0.5 nM oligonucleotide, qPCR) was 0.95 and the “Normalized DMPK Remaining” value (50 nM oligonucleotide, qPCR) stood at 0.70.
For “300 (GGCCUCAGCCUCUGCCGCAG; chemistry not given here) [compound 300]”, the “Percent DMPK Reduction” value came to 20.12% under setting [1] and 71.28% under setting [2]. Further, the “Normalized DMPK Remaining” value worked out at 0.80 (0.5 nM oligonucleotide, qPCR) and 0.29 (50 nM oligonucleotide, qPCR).
Regarding “399 (GGCACGAGACAGAACAACGG; chemistry not given here) [compound 399]”, where the note is “0.5 nM oligonucleotide”, the “Percent DMPK Reduction” value worked out at 16.10% and the “Normalized DMPK Remaining” value is 0.84. In addition, for the setting “50 nM oligonucleotide”, the “Percent DMPK Reduction” value stood at 68.01% and the “Normalized DMPK Remaining” value amounted to 0.32.
On to “432 (UGCCUCGCGUAGUUGACUGG; chemistry not given here) [compound 432]”, for which, for the setting “0.5 nM oligonucleotide”, the “Percent DMPK Reduction” value is listed as 11.03% and the “Normalized DMPK Remaining” value is 0.89. For the same substance, where the note is “50 nM oligonucleotide”, the “Percent DMPK Reduction” value was found to be 88.02% and the “Normalized DMPK Remaining” value came to 0.12.
“264 (AGGAUGUUGUCGGGUUUGAU; chemistry not given here) [compound 264]”: the “Percent DMPK Reduction” value by setting is: under setting [1], 24.19%; under setting [2], 39.48%. For the same substance, the “Normalized DMPK Remaining” value runs as follows: (0.5 nM oligonucleotide, qPCR) 0.76; (50 nM oligonucleotide, qPCR) 0.61.
The like results for “281 (ACAGCGGUCCAGCAGGAUGU; chemistry not given here) [compound 281]” were, in that order, 19.94%, 55.14%, 0.80 and 0.45.
On to “403 (UCUCCGCCAGGUAGAAGCGC; chemistry not given here) [compound 403]”, for which, under “0.5 nM oligonucleotide”, the “Percent DMPK Reduction” value is 19.59% and the “Normalized DMPK Remaining” value is 0.80. For the same substance, for the setting “50 nM oligonucleotide”, the “Percent DMPK Reduction” value amounted to 66.52% and the “Normalized DMPK Remaining” value is 0.33.
On the same counts, the results for “448 (UUGGGCAGAUGGAGGGCCUU; chemistry not given here) [compound 448]” are 19.08%, 0.81, 78.39% and 0.22.
Take “471 (UCGGCCAGGCGGAUGUGGCC; chemistry not given here) [compound 471]”: where the note is “0.5 nM oligonucleotide”, the “Percent DMPK Reduction” value is reported as 26.53% and the “Normalized DMPK Remaining” value came out at 0.73. Besides, under “50 nM oligonucleotide”, the “Percent DMPK Reduction” value came to 83.04% and the “Normalized DMPK Remaining” value stood at 0.17.
Take “274 (UGCCCAUCCACGUCAGGGCC; chemistry not given here) [compound 274]”: the “Percent DMPK Reduction” value under setting [1] is reported as 13.63% and the “Percent DMPK Reduction” value under setting [2] is on record as 33.09%. For the same substance, the “Normalized DMPK Remaining” value was determined as 0.86 (0.5 nM oligonucleotide, qPCR) and 0.67 (50 nM oligonucleotide, qPCR).
On to “393 (UUGGCCGGCGUGGGCCACCA; chemistry not given here) [compound 393]”, for which, where the note is “0.5 nM oligonucleotide”, the “Percent DMPK Reduction” value was -3.19% and the “Normalized DMPK Remaining” value came out at 1.03. For the setting “50 nM oligonucleotide”, the “Percent DMPK Reduction” value amounted to 44.37% and the “Normalized DMPK Remaining” value was determined as 0.56.
As for “354 (AGACAAUAAAUACCGAGGAA; chemistry not given here) [compound 354]”, the “Percent DMPK Reduction” value reads like this: under setting [1], 29.37%; under setting [2], 48.20%. The “Normalized DMPK Remaining” value by setting is: (0.5 nM oligonucleotide, qPCR) 0.71; (50 nM oligonucleotide, qPCR) 0.52.
On the same counts, the results for “375 (CGGCUCAGGCUCUGCCGGGU; chemistry not given here) [compound 375]” are 17.97%, 69.03%, 0.82 and 0.31.
Turning to “480 (AGGGAAAGCGCCUCCGAUAG; chemistry not given here) [compound 480]”, for the setting “0.5 nM oligonucleotide”, the “Percent DMPK Reduction” value was -1.12% and the “Normalized DMPK Remaining” value was determined as 1.01. Also, where the note is “50 nM oligonucleotide”, the “Percent DMPK Reduction” value is on record as 75.50% and the “Normalized DMPK Remaining” value is on record as 0.25.
On to “358 (GUGUCCGGAAGUCGCCUGCU; chemistry not given here) [compound 358]”, for which the “Percent DMPK Reduction” value was determined as 22.99% under setting [1] and 73.65% under setting [2]. Besides, the “Normalized DMPK Remaining” value (0.5 nM oligonucleotide, qPCR) stood at 0.77 and the “Normalized DMPK Remaining” value (50 nM oligonucleotide, qPCR) was determined as 0.26.
With “392 (UGCCUGCAGCAACUCCAUCC; chemistry not given here) [compound 392]”, for the setting “0.5 nM oligonucleotide”, the “Percent DMPK Reduction” value worked out at 13.99% and the “Normalized DMPK Remaining” value is 0.86. Further, for the setting “50 nM oligonucleotide”, the “Percent DMPK Reduction” value turned out to be 49.75% and the “Normalized DMPK Remaining” value is listed as 0.50.
On the same counts, the results for “478 (CCAGCGGCAGAGAGAGGUGC; chemistry not given here) [compound 478]” are 3.23%, 0.97, 84.55% and 0.15.
For “394 (GAGCCUCUGCCUCGCGUAGU; chemistry not given here) [compound 394]”, the “Percent DMPK Reduction” value is, setting by setting: (0.5 nM oligonucleotide) 18.77%; (50 nM oligonucleotide) 77.78%. For the same substance, the “Normalized DMPK Remaining” value is, setting by setting: (0.5 nM oligonucleotide) 0.81; (50 nM oligonucleotide) 0.22.
On to “325 (GGUAGUUCUCAUCCUGGAAG; chemistry not given here) [compound 325]”, for which the “Percent DMPK Reduction” value reads like this: under setting [1], 25.48%; under setting [2], 56.15%. The “Normalized DMPK Remaining” value is, setting by setting: (0.5 nM oligonucleotide, qPCR) 0.75; (50 nM oligonucleotide, qPCR) 0.44.
The like results for “355 (CCCGUCUGCUUCAUCUUCAC; chemistry not given here) [compound 355]” were, in that order, 20.31%, 43.97%, 0.80 and 0.56.
With “445 (GAGGGCCUUUUAUUCGCGAG; chemistry not given here) [compound 445]”, for the setting “0.5 nM oligonucleotide”, the “Percent DMPK Reduction” value worked out at 8.23% and the “Normalized DMPK Remaining” value is 0.92. For the same substance, for the setting “50 nM oligonucleotide”, the “Percent DMPK Reduction” value was 62.21% and the “Normalized DMPK Remaining” value came to 0.38.
For “344 (UCUGCCGCAGGGACAGCCGC; chemistry not given here) [compound 344]”, the “Percent DMPK Reduction” value worked out at 22.97% under setting [1] and 82.10% under setting [2]. Moreover, the “Normalized DMPK Remaining” value was determined as 0.77 (0.5 nM oligonucleotide, qPCR) and 0.18 (50 nM oligonucleotide, qPCR).
As to “404 (CUCUGCCUCGCGUAGUUGAC; chemistry not given here) [compound 404]”, under “0.5 nM oligonucleotide”, the “Percent DMPK Reduction” value is reported as 16.61% and the “Normalized DMPK Remaining” value was found to be 0.83. Where the note is “50 nM oligonucleotide”, the “Percent DMPK Reduction” value is reported as 91.21% and the “Normalized DMPK Remaining” value is listed as 0.09.
For “314 (UCAGCAGUGUCAGCAGGUCC; chemistry not given here) [compound 314]”, the “Percent DMPK Reduction” value was determined as 33.46% under setting [1] and 61.11% under setting [2]. Also, the “Normalized DMPK Remaining” value (0.5 nM oligonucleotide, qPCR) amounted to 0.67 and the “Normalized DMPK Remaining” value (50 nM oligonucleotide, qPCR) was 0.39.
On the same counts, the results for “373 (GGGACAGACAAUAAAUACCG; chemistry not given here) [compound 373]” are 27.19%, 50.50%, 0.73 and 0.49.
For the substance “319 (ACACCUGGCCCGUCUGCUUC; chemistry not given here) [compound 319]”, the “Percent DMPK Reduction” value under setting [1] was found to be 33.00% and the “Percent DMPK Reduction” value under setting [2] was found to be 55.40%. Further, the “Normalized DMPK Remaining” value reads like this: (0.5 nM oligonucleotide, qPCR) 0.67; (50 nM oligonucleotide, qPCR) 0.45.
With “436 (CCACUUCAGCUGUUUCAUCC; chemistry not given here) [compound 436]”, the “Percent DMPK Reduction” value by setting is: (0.5 nM oligonucleotide) 22.40%; (50 nM oligonucleotide) 64.20%. Besides, the “Normalized DMPK Remaining” value runs as follows: (0.5 nM oligonucleotide) 0.78; (50 nM oligonucleotide) 0.36.
On the same counts, the results for “481 (GGGAAAGCGCCUCCGAUAGG; chemistry not given here) [compound 481]” are 10.02%, 76.79%, 0.90 and 0.23.

These data come from patent US20230144436A1, “MUSCLE TARGETING COMPLEXES AND USES THEREOF FOR TREATING MYOTONIC DYSTROPHY” (Dyne Therapeutics, Inc., priority 2020, published 2023).
